Measurements from patent US11919886B2, “4,9-dioxo-4,9-dihydronaphtho[2,3-B]furan-3-carboxamide derivatives and uses thereof for treating proliferative diseases and infectious diseases” (Academia Sinica, priority 2016, dated 2024).
Values after ≈ are worked out from the molar mass of the structure shown. Read-outs that look alike come from different tables or passages of the source.

Assays:
H1975 cells = assay: Replication fork number by MCM2 immunofluorescence staining; format: cell-based, human; conditions: H1975, 140 nM, 48 h
Method: In addition, to evaluate the effects of compound 1 on the progression of DNA replication, the number of replication forks was determined by MCM2 immunofluorescence staining in H1975 cells released from the G1 phase with DMSO and with compound 1 treatment. Exemplary results are shown in Panel (B) of FIG. 2. To evaluate the effects on DNA replication of compound 1, H1975 cells were arrested in G1 by contact inhibition. After 3 days, the cells were re-plated at a low density on cover slips and allowed to progress through the cell cycle. The cells were pulsed with 140 nM compound for 48 h and were fixed for 10 minutes at room temperature in 3.7% cold paraformaldehyde in PBS (pH 7.2), washed 3 times with PBS, and permeabilized for 10 minutes at room temperature in PBS containing 0.1% Triton X-100. The cells were blocked with PBS containing 3% bovine serum albumin and stained overnight at 4° C. with primary antibodies against MCM2, followed by incubation for 1 hour at 37° C. with Alexa Fluor 488 Goat Anti-Mouse IgG (Life Technologies Corporation), respectively. The cells were mounted onto microscope slides with ProLong Gold Antifade Reagent with DAPI (4′,6-Diamidino-2-phenylindole dihydrochloride) (Life Technologies Corporation) and then examined and photographed using Zeiss LSM 700 Confocal (Zeiss, Urbana, IL). […] (Panel (B) of FIG. 2)

[1] = system: Staphylococcus aureus (MSSA, MRSA); assay: Disc diffusion method, inhibition zones; format: cell-based; conditions: for zone of inhibition at 5 µg/disc: Staphylococcus aureus, 5 μg
Staphylococcus aureus = assay: MIC, broth micro dilution method; format: cell-based
Enterococcus faecium = assay: MIC, broth micro dilution method; format: cell-based
Acinetobacter baumannii = assay: MIC, broth micro dilution method; format: cell-based

Cc1oc2c(c1C(=O)NCCCn1ccnc1)C(=O)c1ccccc1C2=O [Compound 1, N-(3-(1H-Imidazol-1-yl)propyl)-2-methyl-4,9-dioxo-4,9-dihydronaphtho [2,3-b]furan-3-carboxamide]
number of the replication fork (H1975 cells): 176.8±8.721 | antimicrobial activity against all the MRSA strains ([1]; 5 μg concentration, disc diffusion): showed antimicrobial activity | antibacterial activity against MRSA as compared to ciprofloxacin ([1]; MRSA): stronger antibacterial activity | zone of inhibition at 5 µg/disc ([1]; disc diffusion, read-out: average diameter of the inhibition zone): 25.5 mm | zone of inhibition at 5 µg/disc ([1]; strain MRSA14979, read-out: Inhibition zone (mm)): 25 mm | zone of inhibition at 5 µg/disc ([1]; strain MRSA15211, read-out: Inhibition zone (mm)): 26 mm | zone of inhibition at 5 µg/disc ([1]; strain NTUH-104-2, MRSA (SCCmec VT, ST45), read-out: Inhibition zone (mm)): 24 mm | zone of inhibition at 5 µg/disc ([1]; strain NTUH-2102, MRSA (SCCmec II, ST5, FA-S), read-out: Inhibition zone (mm)): 26 mm | zone of inhibition at 5 µg/disc ([1]; strain NTUH-4578, MRSA (SCCmec IV, ST59), read-out: Inhibition zone (mm)): 27 mm | zone of inhibition at 5 µg/disc ([1]; strain NTUH-9383, MRSA (SCCmec III, ST239, FA-R), read-out: Inhibition zone (mm)): 29 mm | zone of inhibition at 5 µg/disc ([1]; strain PM1, MRSA (SCCmec VT, ST59), read-out: Inhibition zone (mm)): 25 mm | zone of inhibition at 5 µg/disc ([1]; strain SA10451, read-out: Inhibition zone (mm)): 24 mm | zone of inhibition at 5 µg/disc ([1]; strain SA10780, read-out: Inhibition zone (mm)): 25 mm | zone of inhibition at 5 µg/disc ([1]; strain SAI 1863, read-out: Inhibition zone (mm)): 25 mm | zone of inhibition at 5 µg/disc ([1]; ATCC 25923 / MRSA / MSSA, strain ATCC25923, MSSA, read-out: Inhibition zone (mm)): 26 mm | MIC (Staphylococcus aureus; ATCC 2921 / MSSA, read-out: MIC (μg/ml) 100%, strain ATCC2921 3, MSSA): 4 µg/mL (≈ 11 µM) | MIC (Staphylococcus aureus; ATCC 2921 / MSSA, strain ATCC2921 3, MSSA, read-out: MIC (μg/ml) 50%): 1 µg/mL (≈ 2.75 µM) | MIC (Staphylococcus aureus; ATCC 12598 / MSSA, read-out: MIC (μg/ml) 100%, strain ATCC12598, MSSA): 4 µg/mL (≈ 11 µM) | MIC (Staphylococcus aureus; ATCC 12598 / MSSA, strain ATCC12598, MSSA, read-out: MIC (μg/ml) 50%): 0.5 µg/mL (≈ 1.38 µM) | MIC (Staphylococcus aureus; ATCC 25923 / MSSA, read-out: MIC (μg/ml) 100%, strain ATCC25923, MSSA): 4 µg/mL (≈ 11 µM) | MIC (Staphylococcus aureus; ATCC 25923 / MSSA, strain ATCC25923, MSSA, read-out: MIC (μg/ml) 50%): 2 µg/mL (≈ 5.5 µM) | MIC (Staphylococcus aureus; ATCC 33592 / MRSA, read-out: MIC (μg/ml) 100%, strain ATCC33592, MRSA (SCCmec III)): 1 µg/mL (≈ 2.75 µM) | MIC (Staphylococcus aureus; ATCC 33592 / MRSA, strain ATCC33592, MRSA (SCCmec III), read-out: MIC (μg/ml) 50%): 0.5 µg/mL (≈ 1.38 µM) | MIC (Staphylococcus aureus; ATCC 49476 / MRSA, read-out: MIC (μg/ml) 100%, strain ATCC49476, MRSA (SCCmec III)): 1 µg/mL (≈ 2.75 µM) | MIC (Staphylococcus aureus; ATCC 49476 / MRSA, strain ATCC49476, MRSA (SCCmec III), read-out: MIC (μg/ml) 50%): 0.5 µg/mL (≈ 1.38 µM) | MIC (Staphylococcus aureus; MRSA, range over MRSA strains, broth micro dilution, read-out: MIC): 1 to 4 µg/mL (≈ 2.75 to 11 µM) | MIC (Staphylococcus aureus; MRSA, read-out: MIC (μg/ml) 100%, strain NTUH-1-2868, MRSA (SCCmec III, ST239, FA-R), clinical isolate): 1 µg/mL (≈ 2.75 µM) | MIC (Staphylococcus aureus; MRSA, read-out: MIC (μg/ml) 100%, strain NTUH-104-2, MRSA (SCCmec VT, ST45), clinical isolate): 1 µg/mL (≈ 2.75 µM) | MIC (Staphylococcus aureus; MRSA, read-out: MIC (μg/ml) 100%, strain NTUH-406-2, MRSA (SCCmec IV, spa type t008), clinical isolate): 4 µg/mL (≈ 11 µM) | MIC (Staphylococcus aureus; MRSA, read-out: MIC (μg/ml) 100%, strain NTUH-560, MRSA (SCCmec II, GM-S), clinical isolate): 4 µg/mL (≈ 11 µM) | MIC (Staphylococcus aureus; MRSA, read-out: MIC (μg/ml) 100%, strain NTUH-2102, MRSA (SCCmec II, ST5, FA-S), clinical isolate): 4 µg/mL (≈ 11 µM) | MIC (Staphylococcus aureus; MRSA, read-out: MIC (μg/ml) 100%, strain NTUH-2417, MRSA (SCCmec III, SXT-S), clinical isolate): 1 µg/mL (≈ 2.75 µM) | MIC (Staphylococcus aureus; MRSA, read-out: MIC (μg/ml) 100%, strain NTUH-2643, MRSA (SCCmec IV, spa type to 15), clinical isolate): 4 µg/mL (≈ 11 µM) | MIC (Staphylococcus aureus; MRSA, read-out: MIC (μg/ml) 100%, strain NTUH-2967, MRSA (SCCmec VT, ST1), clinical isolate): 4 µg/mL (≈ 11 µM) | MIC (Staphylococcus aureus; MRSA, read-out: MIC (μg/ml) 100%, strain NTUH-4400, MRSA (SCCmec II, ST5, FA-R), clinical isolate): 2 µg/mL (≈ 5.5 µM) | MIC (Staphylococcus aureus; MRSA, read-out: MIC (μg/ml) 100%, strain NTUH-4578, MRSA (SCCmec IV, ST59), clinical isolate): 4 µg/mL (≈ 11 µM) | MIC (Staphylococcus aureus; MRSA, read-out: MIC (μg/ml) 100%, strain NTUH-8038, MRSA (SCCmec IV, spa type t189), clinical isolate): 4 µg/mL (≈ 11 µM) | MIC (Staphylococcus aureus; MRSA, read-out: MIC (μg/ml) 100%, strain NTUH-9383, MRSA (SCCmec III, ST239, FA-R), clinical isolate): 1 µg/mL (≈ 2.75 µM) | MIC (Staphylococcus aureus; MRSA, read-out: MIC (μg/ml) 100%, strain PM1, MRSA (SCCmec VT, ST59), clinical isolate): 4 µg/mL (≈ 11 µM) | MIC (Staphylococcus aureus; MRSA, read-out: MIC (μg/ml) 100%, strain TSHR17, MRSA (SCCmec VT)): 4 µg/mL (≈ 11 µM) | MIC (Staphylococcus aureus; MRSA, strain NTUH-1-2868, MRSA (SCCmec III, ST239, FA-R), clinical isolate, read-out: MIC (μg/ml) 50%): 0.5 µg/mL (≈ 1.38 µM) | MIC (Staphylococcus aureus; MRSA, strain NTUH-104-2, MRSA (SCCmec VT, ST45), clinical isolate, read-out: MIC (μg/ml) 50%): 0.5 µg/mL (≈ 1.38 µM) | MIC (Staphylococcus aureus; MRSA, strain NTUH-406-2, MRSA (SCCmec IV, spa type t008), clinical isolate, read-out: MIC (μg/ml) 50%): 0.5 µg/mL (≈ 1.38 µM) | MIC (Staphylococcus aureus; MRSA, strain NTUH-560, MRSA (SCCmec II, GM-S), clinical isolate, read-out: MIC (μg/ml) 50%): 1 µg/mL (≈ 2.75 µM) | MIC (Staphylococcus aureus; MRSA, strain NTUH-2102, MRSA (SCCmec II, ST5, FA-S), clinical isolate, read-out: MIC (μg/ml) 50%): 1 µg/mL (≈ 2.75 µM) | MIC (Staphylococcus aureus; MRSA, strain NTUH-2417, MRSA (SCCmec III, SXT-S), clinical isolate, read-out: MIC (μg/ml) 50%): 0.5 µg/mL (≈ 1.38 µM) | MIC (Staphylococcus aureus; MRSA, strain NTUH-2643, MRSA (SCCmec IV, spa type to 15), clinical isolate, read-out: MIC (μg/ml) 50%): 1 µg/mL (≈ 2.75 µM) | MIC (Staphylococcus aureus; MRSA, strain NTUH-2967, MRSA (SCCmec VT, ST1), clinical isolate, read-out: MIC (μg/ml) 50%): 1 µg/mL (≈ 2.75 µM) | MIC (Staphylococcus aureus; MRSA, strain NTUH-4400, MRSA (SCCmec II, ST5, FA-R), clinical isolate, read-out: MIC (μg/ml) 50%): 1 µg/mL (≈ 2.75 µM) | MIC (Staphylococcus aureus; MRSA, strain NTUH-4578, MRSA (SCCmec IV, ST59), clinical isolate, read-out: MIC (μg/ml) 50%): 1 µg/mL (≈ 2.75 µM) | MIC (Staphylococcus aureus; MRSA, strain NTUH-8038, MRSA (SCCmec IV, spa type t189), clinical isolate, read-out: MIC (μg/ml) 50%): 1 µg/mL (≈ 2.75 µM) | MIC (Staphylococcus aureus; MRSA, strain NTUH-9383, MRSA (SCCmec III, ST239, FA-R), clinical isolate, read-out: MIC (μg/ml) 50%): 0.5 µg/mL (≈ 1.38 µM) | MIC (Staphylococcus aureus; MRSA, strain PM1, MRSA (SCCmec VT, ST59), clinical isolate, read-out: MIC (μg/ml) 50%): 1 µg/mL (≈ 2.75 µM) | MIC (Staphylococcus aureus; MRSA, strain TSHR17, MRSA (SCCmec VT), read-out: MIC (μg/ml) 50%): 0.5 µg/mL (≈ 1.38 µM) | MIC (Enterococcus faecium; read-out: MIC (μg/ml) 100%, strain ATCC19434): 16 µg/mL (≈ 44 µM) | MIC (Enterococcus faecium; strain ATCC19434, read-out: MIC (μg/ml) 50%): 2 µg/mL (≈ 5.5 µM) | MIC (Acinetobacter baumannii; read-out: MIC (μg/ml) 100%, strain ATCC19606, gram negative): > 32 µg/mL | MIC (Acinetobacter baumannii; strain ATCC19606, gram negative, read-out: MIC (μg/ml) 50%): > 32 µg/mL
